According to patent publication US9446043B2, “Pharmaceutical combinations” (Novartis AG, priority 2012, dated 2016):

Assays:
[1] = system: 92.1 uveal melanoma cell line (GNAQ mutation); test: Proliferation measurement by xCELLigence; type: cell-based, human; conditions: 92.1 cells, 0.5 μM per compound, 6 days
Description: (§1) 92.1 and OMM-1 uveal melanoma cell lines were cultured in Roswell Park Memorial Institute medium (RPMI 1640) (American Type Culture Collection (ATCC #30-2001)) supplemented with 10% fetal bovine serum and incubated at 37° C./5% carbon dioxide.
(§2) Compound stocks of 3-(1H-indol-3-yl)-4-[2-(4-methyl-piperazin-1-yl)-quinazolin-4-yl]-1H-pyrrole-2,5-dione, hereafter AEB071, and of 6-(4-bromo-2-fluorophenylamino)-7-fluoro-3-methyl-3H-benzoimidazole-5-carboxylic acid (2-hydroxyethoxy)-amide, hereafter COMPOUND B, were prepared in dimethylsulfoxide (DMSO) at a final concentration of 10 mM.
(§3) Growth of uveal cells was continuously monitored with the xCELLigence real-time cell analyzer. E-plates (Roche #05 232 368 001) were incubated with cells added at a final concentration of 3000 cells per 100 μl per well. Impedance was measured every 2 hours for 24 hours. […] Impedance was measured every 2 hours over 7 days. Data was normalized to day 0 prior to compound addition.
(§4) The effect of 3-(1H-indol-3-yl)-4-[2-(4-methyl-piperazin-1-yl)-quinazolin-4-yl]-1H-pyrrole-2,5-dione (COMPOUND A) and 6-(4-bromo-2-fluorophenylamino)-7-fluoro-3-methyl-3H-benzoimidazole-5-carboxylic acid (2-hydroxyethoxy)-amide (COMPOUND B) on uveal melanoma proliferation in vitro is shown (FIG. 1).

[2] = system: OMM1 uveal melanoma cell line (GNA11 mutation); test: Proliferation measurement by xCELLigence; type: cell-based; conditions: OMM1 cells, 0.5 μM per compound, 6 days
Description: as §1, §2, §3, §4

pMARCKS = test: Protein immunoblot following drug treatment of uveal melanoma cell lines; type: cell-based, human; conditions: 92.1 and OMM-1 cells, 0.5 μM per agent, 2-48 hours
Description: Uveal melanoma cells were incubated with 0.5 μM AEB071, 0.5 μM COMPOUND B, both compounds or DMSO alone. Cells were lysed after 2, 4, 8, 24 or 48 hours of treatment in M-PER mammalian protein extraction buffer containing PhosStop Phosphatase inhibitor cocktail tablet (Roche Diagnostics #04 906 837 001) and Complete Protease Inhibitor cocktail tablet (Roche Diagnostics #11 836 145 001). Proteins were separated on a 4-12% Bis-Tris NuPAGE SDS gel (Invitrogen #WG1403Bx10) and subsequently transferred to a nitrocellulose membrane using a dry blotting system (Invitrogen iBLOT). Proteins were detected with 1:1000 dilutions of anti-p44/42 MAPK (Cell Signaling Technologies #4377), anti-pMARCKS (Cell Signaling Technologies #2741), anti-pMEK1/2 (Cell Signaling Technologies #9121) and anti-Beta Actin (Ambion#AM4202). Beta actin was detected using the appropriate secondary antibody and an infrared dye detection system (Odyssey IRDye, LI-COR) according to the manufacturer's protocol. All other proteins were detected using an anti-rabbit-HRP secondary antibody and developed with SuperSignal West Dura Chemiluminescent Substrate (Thermo Scientific #34076) on a Syngene imaging system. The biochemical effect of these agents was assessed following treatment with 0.5 μM AEBO071, 0.5 μM COMPOUND B or 0.5 μM of each agent together in the uveal melanoma cell lines 92.1 and OMM-1. […]

[3] = system: 92.1 uveal melanoma cell line; test: Cell proliferation in combination dose matrix (Cell Titer Glo, Chalice); type: cell-based, human; conditions: 92.1 cells; for anti-proliferative response in dose matrix: 0.039 μM to 10 μM; for inhibition at 0.16 µM: Homo sapiens, 0.16 μM of each agent, 144 hours, Cell Titer Glo, read-out: growth inhibition (FIG. 2, top panel)
Description: Cells were seeded at a density of 3000 cells per 100 μl of medium per well in 96-well plates (Costar #3904) and incubated overnight prior to compound addition. Compound stock was freshly prepared in the appropriate culture medium and manually added to the plates by electronic multichannel pipette in three replicates. Cells were treated with compound alone or with a combination of AEB071 and COMPOUND B diluted 1:2 for a ten point dilution ranging from 0.039 μM to 10 μM. The viability of cells was assessed at the time of compound addition and after 144 hours of treatment by quantification of cellular ATP levels via Cell Titer Glo (Promega #G7571) according to the manufacturer's protocol. Plates were read on a luminescence plate reader (Victor X4, Perkin Elmer). Fractional inhibition of growth was calculated using XLfit and normalized to no compound wells. For growth inhibition, day 0 values were subtracted before calculating inhibition. Data was analyzed by Chalice software
(http://chalice.zalicus.com/documentation/analyzer/index.jsp) to calculate growth inhibition, inhibition and HSA excess.
FIG. 2 provides a closer look at the patterns of synergy between the two agents in the 92.1 cell line. The dose matrix between the two agents is shown; the effect on cell growth relative to untreated cells is shown in the top panel, the excess inhibition (HSA) in the center panel and the growth inhibition relative to day zero normalization is shown in the bottom panel. Methods of calculations for growth inhibition, inhibition and HSA excess are known in the art.
Inhibition and excess inhibition values for all dose combinations can be seen in FIG. 2. The growth rate of the cells during the […] assay was taken into account for the calculation of growth inhibition percent shown in FIG. 2, bottom panel. 100% indicated stasis, meaning the cells had neither grown nor died during the course of the assay, values in excess of 100 indicate death, 200 being complete cell death, and values below 100 indication growth from the start of the assay to the day 3 end point.

[4] = system: 92.1 human uveal melanoma xenograft (GNAQ mutation); test: In vivo activity in the 92.1 human uveal melanoma nude mouse xenograft model
Description: NVP-AEB071 (also referred to as AEB071) (acetate salt, 87.96% free base) powder was added to 20% polyethyleneglycol 400 (PEG400): 4.5% 0.1M HCl: 75.5% of 5% dextrose in water (D5W), designated as Vehicle 1, and stirred to obtain a clear red solution. NVP-COMPOUND B (also referred to as COMPOUND B) was formulated as a homogenous suspension in 1% carboxymethyl cellulose: 0.5% Tween® 80 in deionized water. A fresh suspension was prepared once per week for each compound and stored at 4° C.
The animals were fed ad libitum water (reverse osmosis, 1 ppm Cl) and NIH 31 Modified and Irradiated Lab Diet® consisting of 18.0% crude protein, 5.0% crude fat, and 5.0% crude fiber. The mice were housed on irradiated Enrich-O'Cobs™ Laboratory Animal Bedding in static microisolators on a 12-hour light cycle at 20-22° C. (68-72° F.) and 40-60% humidity. DRS-NC specifically complies with the recommendations of the Guide for Care and Use of Laboratory Animals with respect to restraint, husbandry, surgical procedures, feed and fluid regulation, and veterinary care. The animal program at DRS-NC is accredited by the Association for Assessment and Accreditation of Laboratory Animal Care (AAALAC) International, which assures compliance with accepted standards for the care and use of laboratory animals.
The 92.1 uveal melanoma cells were harvested during exponential growth, and re-suspended in cold PBS (phosphate buffered saline) with 50% Matrigel™ (BD Biosciences). Each mouse was inoculated subcutaneously in the right flank with 5×10^6 cells (0.2 mL of cell suspension). Tumors were calipered in two dimensions to monitor growth as their mean volume approached the desired 100-150 mm^3 range. Tumor size, in mm^3, was calculated from: Tumor Volume=(w^2×l)/2 where w=width and l=length, in mm, of the tumor. Tumor weight could be estimated with the assumption that 1 mg was equivalent to 1 mm^3 of tumor volume. Twelve days after tumor cell implantation, on Day 1 (D1) of the study, animals with individual tumor volumes of 108-256 mm^3 were sorted into six groups (n=10/group) with group mean tumor volumes of 153-159 mm^3.
AEB071 was administered at 91 mg/kg three times daily (TID) dosing for 21 days. Efficacy was determined from tumor growth inhibition on day 17, the last day with all mice on the study. The activity was calculated at tumor/control (T/C), the percent mean tumor volume change from day 1 to day 17 in drug treated mice (ΔT) versus vehicle treated mice, or as a T/T0, the percent reduction in the group mean tumor volume from day 1. […] Addition of COMPOUND B dosed twice daily at 3.5 mg/kg to the AEB071 regimen yielded a −22% T−T0 (p<0.001 median activity, but not significant compared to AEB071 alone). COMPOUND B had no activity in its own right with a T/C of 84%.
Mice were dosed for 21 days, then treatment ceased and tumor outgrowth was monitored. […] Tumor growth delay was not calculated because two or more tumors per group became static after an initial growth period, but the trend of tumor outgrowth rate indicated the AEB071 plus COMPOUND B combination tumors grew out slower than AEB071 single agent, COMPOUND B single agent treated tumors were not monitored due to lack of efficacy.
The effectiveness of the combination increased in a dose dependent manner, with increasing AEB071 dose in combination with COMPOUND B yielding a greater magnitude of response. AEB071 was administered at […] and 22.74 mg/kg, (equivalent to 80, 40 and 20 mg/kg free base) with three times daily dosing (TID) for 21 days in combination with COMPOUND B at 3.5 mg/kg with twice daily dosing in the 92.1 human uveal melanoma nude mouse xenograft model. Efficacy was determined from tumor growth inhibition on day 22. The activity was calculated at tumor/control (T/C), the percent mean tumor volume change from day 1 to day 22 in drug treated mice (ΔT) versus vehicle treated mice, or as a T/T0, the percent reduction in the group mean tumor volume from day 1. […]

pERK1/2 = test: Protein immunoblot following drug treatment of uveal melanoma cell lines; type: cell-based, human; conditions: 92.1 and OMM-1 cells
Description: (§5) Uveal melanoma cells were incubated with 0.5 μM AEB071, 0.5 μM COMPOUND B, both compounds or DMSO alone. Cells were lysed after 2, 4, 8, 24 or 48 hours of treatment in M-PER mammalian protein extraction buffer containing PhosStop Phosphatase inhibitor cocktail tablet (Roche Diagnostics #04 906 837 001) and Complete Protease Inhibitor cocktail tablet (Roche Diagnostics #11 836 145 001). Proteins were separated on a 4-12% Bis-Tris NuPAGE SDS gel (Invitrogen #WG1403Bx10) and subsequently transferred to a nitrocellulose membrane using a dry blotting system (Invitrogen iBLOT). Proteins were detected with 1:1000 dilutions of anti-p44/42 MAPK (Cell Signaling Technologies #4377), anti-pMARCKS (Cell Signaling Technologies #2741), anti-pMEK1/2 (Cell Signaling Technologies #9121) and anti-Beta Actin (Ambion#AM4202). Beta actin was detected using the appropriate secondary antibody and an infrared dye detection system (Odyssey IRDye, LI-COR) according to the manufacturer's protocol. All other proteins were detected using an anti-rabbit-HRP secondary antibody and developed with SuperSignal West Dura Chemiluminescent Substrate (Thermo Scientific #34076) on a Syngene imaging system.
(§6) The biochemical effect of these agents was assessed following treatment with 0.5 μM AEBO071, 0.5 μM COMPOUND B or 0.5 μM of each agent together in the uveal melanoma cell lines 92.1 and OMM-1. The level of pMARCKS was attenuated (FIG. 3). […] The combination of AEB071 and COMPOUND B suppressed pathway components to a greater magnitude and duration compared to either single agent.

pMEK1/2 = test: as above; type: cell-based, human; conditions: 92.1 and OMM-1 cells, 0.5 μM per agent, over time, clearly observed at 48 hours
Description: as §5, §6

Row | SMILES | effect on growth of uveal melanoma cell line (xCELLigence) [1] | effect on growth of uveal melanoma cell line (xCELLigence) [2] | level of pMARCKS (pMARCKS) | anti-proliferative response in dose matrix [3] | inhibition at 0.16 µM [3] [%] | mean tumor response during the dosing period ([4]; 21 days dosing (FIG. 5)) | T/C (tumor/control) ([4]; AEB071 22.7 mg/kg (20 mg/kg free base) TID for 21 days, day 22, non-significant) [%] | T/C (tumor/control) ([4]; AEB071 45.5 mg/kg (40 mg/kg free base) TID for 21 days, day 22, non-significant) [%] | T/C (tumor/control) ([4]; AEB071 90.95 mg/kg (80 mg/kg free base) TID for 21 days, day 22, p<0.05) [%] | T/C (tumor/control) ([4]; AEB071 (acetate salt) 91 mg/kg TID for 21 days, day 17, p<0.01) [%] | tumor progression after the dosing period ([4]; two weeks following the 21 day dosing period, followed >70 days (FIG. 5)) | pERK1/2 levels (pERK1/2; 0.5 μM per agent, seen at 2 hrs, time course 2-48 hours) | pERK1/2 expression by 24 hours (pERK1/2; 0.5 μM, 24 hours) | pMEK1/2 expression (pMEK1/2) | T/C (tumor/control) ([4]; COMPOUND B 3.5 mg/kg twice daily, day 17) [%] | T/C (tumor/control) ([4]; COMPOUND B 3.5 mg/kg twice daily, day 22) [%]
1 | CN1CCN(c2nc(C3=C(c4c[nH]c5ccccc45)C(=O)NC3=O)c3ccccc3n2)CC1 [AEB071, 3-(1H-indol-3-yl)-4-[2-(4-methyl-piperazin-1-yl)-quinazolin-4-yl]-1H-pyrrole-2,5-dione] | delayed cell growth | delayed cell growth | attenuated | active | 19 | near complete mean tumor stasis | 92 | 52 | 18 | 3 | progressed at the control pace | – | – | – | – | –
2 | Cn1cnc2c(F)c(Nc3ccc(Br)cc3F)c(C(=O)NOCCO)cc21 [COMPOUND B, 6-(4-bromo-2-fluorophenylamino)-7-fluoro-3-methyl-3H-benzoimidazole-5-carboxylic acid (2-hydroxyethoxy)-amide] | modest effect | modest effect | – | active | 57 | – | – | – | – | – | – | reduction in pERK1/2 levels | beginning to return | induction of pMEK1/2 expression | 84 | 56
